{"source": "PubChem BioAssay AID1963963", "about": "(Molecular Pharmacology Branch, DTP, NCI, 2024);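 further: spheroids exposed to compounds for seven days before readout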", "test_system": "958667-338-R-J2-PDC tumor spheroids viability", "experiment": "Anticancer human tumor 958667-338-R-J2-PDC patient-derived colon adenocarcinoma cell line growth inhibition [PI3K]", "conditions": "spheroids with HUVEC and MSC; for IC50: curve of first compound; for viability, T/C: stronger effect = lower value", "outline": "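Viability of mixed-cell spheroids was determined after exposure to pairwise combinations, one partner being inavolisib, alpelisib, duvelisib or copanlisib. Highest tested concentration matched clinical Cmax where known and 10 microM where not, descending in half-log steps.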"}
{"smiles": "CCN1CCN(Cc2ccc(Nc3ncc(F)c(-c4cc(F)c5nc(C)n(C(C)C)c5c4)n3)nc2)CC1", "note": "+ Cc1nc(NC(=O)N2CCCC2C(N)=O)sc1-c1ccnc(C(C)(C)C(F)(F)F)c1", "values": [{"measurement": "IC50", "setting": "second compound 0.0316 µM", "result": "> 1000", "unit": "nM"}, {"measurement": "IC50", "setting": "second compound 0.1 µM", "result": "> 1000", "unit": "nM"}, {"measurement": "IC50", "setting": "second compound 0.316 µM", "result": "> 1000", "unit": "nM"}, {"measurement": "IC50", "setting": "second compound 1 µM", "result": 684, "unit": "nM"}, {"measurement": "IC50", "setting": "second compound 3.16 µM", "result": 29.4, "unit": "nM"}, {"measurement": "IC50", "setting": "second compound 10 µM", "result": 30.5, "unit": "nM"}, {"measurement": "viability, T/C", "setting": "second compound 0.0316 µM, first compound 0.00316 µM", "result": 96.6, "unit": "%"}, {"measurement": "viability, T/C", "setting": "second compound 0.0316 µM, first compound 0.01 µM", "result": 108, "unit": "%"}, {"measurement": "viability, T/C", "setting": "second compound 0.0316 µM, first compound 0.0316 µM", "result": 93.5, "unit": "%"}, {"measurement": "viability, T/C", "setting": "second compound 0.0316 µM, first compound 0.1 µM", "result": 81.5, "unit": "%"}, {"measurement": "viability, T/C", "setting": "second compound 0.0316 µM, first compound 0.316 µM", "result": 64.7, "unit": "%"}, {"measurement": "viability, T/C", "setting": "second compound 0.0316 µM, first compound 1 µM", "result": 73.9, "unit": "%"}, {"measurement": "viability, T/C", "setting": "second compound 0.1 µM, first compound 0.00316 µM", "result": 97.6, "unit": "%"}, {"measurement": "viability, T/C", "setting": "second compound 0.1 µM, first compound 0.01 µM", "result": 112, "unit": "%"}, {"measurement": "viability, T/C", "setting": "second compound 0.1 µM, first compound 0.0316 µM", "result": 85, "unit": "%"}, {"measurement": "viability, T/C", "setting": "second compound 0.1 µM, first compound 0.1 µM", "result": 77.1, "unit": "%"}, {"measurement": "viability, T/C", "setting": "second compound 0.1 µM, first compound 0.316 µM", "result": 86.1, "unit": "%"}, {"measurement": "viability, T/C", "setting": "second compound 0.1 µM, first compound 1 µM", "result": 70.4, "unit": "%"}, {"measurement": "viability, T/C", "setting": "second compound 0.316 µM, first compound 0.00316 µM", "result": 85.5, "unit": "%"}, {"measurement": "viability, T/C", "setting": "second compound 0.316 µM, first compound 0.01 µM", "result": 86, "unit": "%"}, {"measurement": "viability, T/C", "setting": "second compound 0.316 µM, first compound 0.0316 µM", "result": 79.7, "unit": "%"}, {"measurement": "viability, T/C", "setting": "second compound 0.316 µM, first compound 0.1 µM", "result": 84.6, "unit": "%"}, {"measurement": "viability, T/C", "setting": "second compound 0.316 µM, first compound 0.316 µM", "result": 68, "unit": "%"}, {"measurement": "viability, T/C", "setting": "second compound 0.316 µM, first compound 1 µM", "result": 61.8, "unit": "%"}, {"measurement": "viability, T/C", "setting": "second compound 1 µM, first compound 0.00316 µM", "result": 94.5, "unit": "%"}, {"measurement": "viability, T/C", "setting": "second compound 1 µM, first compound 0.01 µM", "result": 67.4, "unit": "%"}, {"measurement": "viability, T/C", "setting": "second compound 1 µM, first compound 0.0316 µM", "result": 72.8, "unit": "%"}, {"measurement": "viability, T/C", "setting": "second compound 1 µM, first compound 0.1 µM", "result": 59.7, "unit": "%"}, {"measurement": "viability, T/C", "setting": "second compound 1 µM, first compound 0.316 µM", "result": 57.4, "unit": "%"}, {"measurement": "viability, T/C", "setting": "second compound 1 µM, first compound 1 µM", "result": 45.5, "unit": "%"}, {"measurement": "viability, T/C", "setting": "second compound 3.16 µM, first compound 0.00316 µM", "result": 66.4, "unit": "%"}, {"measurement": "viability, T/C", "setting": "second compound 3.16 µM, first compound 0.01 µM", "result": 86.1, "unit": "%"}, {"measurement": "viability, T/C", "setting": "second compound 3.16 µM, first compound 0.0316 µM", "result": 48.1, "unit": "%"}, {"measurement": "viability, T/C", "setting": "second compound 3.16 µM, first compound 0.1 µM", "result": 47.1, "unit": "%"}, {"measurement": "viability, T/C", "setting": "second compound 3.16 µM, first compound 0.316 µM", "result": 47.9, "unit": "%"}, {"measurement": "viability, T/C", "setting": "second compound 3.16 µM, first compound 1 µM", "result": 35.8, "unit": "%"}, {"measurement": "viability, T/C", "setting": "second compound 10 µM, first compound 0.00316 µM", "result": 54.2, "unit": "%"}, {"measurement": "viability, T/C", "setting": "second compound 10 µM, first compound 0.01 µM", "result": 60.8, "unit": "%"}, {"measurement": "viability, T/C", "setting": "second compound 10 µM, first compound 0.0316 µM", "result": 44.7, "unit": "%"}, {"measurement": "viability, T/C", "setting": "second compound 10 µM, first compound 0.1 µM", "result": 46.5, "unit": "%"}, {"measurement": "viability, T/C", "setting": "second compound 10 µM, first compound 0.316 µM", "result": 36.5, "unit": "%"}, {"measurement": "viability, T/C", "setting": "second compound 10 µM, first compound 1 µM", "result": 31.3, "unit": "%"}]}
